EC50 and Emax data for 54 molecules are collected here from patent US8642609B2, “Modulators of ATP-binding cassette transporters” (Vertex Pharmaceuticals Incorporated, priority 2003, dated 2014).

The target of the assay is T1, ΔF508-CFTR (Homo sapiens, UniProt P13569, DEL508-508).
T1 construct: expressed in transfected cells
The experiment in a line: Membrane potential optical assay (FRET/VIPR), identification of correction compounds. The assay is classed as cell-based. Conditions: for Emax: relative efficacy. In a few lines: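 Corrector screen: FRET voltage-sensor dyes (CC2-DMPE donor, DiSBAC2(3)) report Cl^− efflux-driven depolarization after 10 μM forskolin and 20 μM genistein in Cl^−-free medium. Beforehand, ΔF508-CFTR NIH3T3 fibroblasts received compound for 16 hrs at 37° C; temperature-corrected cells (27° C) served as positive control.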

T1 sequence (P13569 with tags, fused parts or gaps DEL508-508): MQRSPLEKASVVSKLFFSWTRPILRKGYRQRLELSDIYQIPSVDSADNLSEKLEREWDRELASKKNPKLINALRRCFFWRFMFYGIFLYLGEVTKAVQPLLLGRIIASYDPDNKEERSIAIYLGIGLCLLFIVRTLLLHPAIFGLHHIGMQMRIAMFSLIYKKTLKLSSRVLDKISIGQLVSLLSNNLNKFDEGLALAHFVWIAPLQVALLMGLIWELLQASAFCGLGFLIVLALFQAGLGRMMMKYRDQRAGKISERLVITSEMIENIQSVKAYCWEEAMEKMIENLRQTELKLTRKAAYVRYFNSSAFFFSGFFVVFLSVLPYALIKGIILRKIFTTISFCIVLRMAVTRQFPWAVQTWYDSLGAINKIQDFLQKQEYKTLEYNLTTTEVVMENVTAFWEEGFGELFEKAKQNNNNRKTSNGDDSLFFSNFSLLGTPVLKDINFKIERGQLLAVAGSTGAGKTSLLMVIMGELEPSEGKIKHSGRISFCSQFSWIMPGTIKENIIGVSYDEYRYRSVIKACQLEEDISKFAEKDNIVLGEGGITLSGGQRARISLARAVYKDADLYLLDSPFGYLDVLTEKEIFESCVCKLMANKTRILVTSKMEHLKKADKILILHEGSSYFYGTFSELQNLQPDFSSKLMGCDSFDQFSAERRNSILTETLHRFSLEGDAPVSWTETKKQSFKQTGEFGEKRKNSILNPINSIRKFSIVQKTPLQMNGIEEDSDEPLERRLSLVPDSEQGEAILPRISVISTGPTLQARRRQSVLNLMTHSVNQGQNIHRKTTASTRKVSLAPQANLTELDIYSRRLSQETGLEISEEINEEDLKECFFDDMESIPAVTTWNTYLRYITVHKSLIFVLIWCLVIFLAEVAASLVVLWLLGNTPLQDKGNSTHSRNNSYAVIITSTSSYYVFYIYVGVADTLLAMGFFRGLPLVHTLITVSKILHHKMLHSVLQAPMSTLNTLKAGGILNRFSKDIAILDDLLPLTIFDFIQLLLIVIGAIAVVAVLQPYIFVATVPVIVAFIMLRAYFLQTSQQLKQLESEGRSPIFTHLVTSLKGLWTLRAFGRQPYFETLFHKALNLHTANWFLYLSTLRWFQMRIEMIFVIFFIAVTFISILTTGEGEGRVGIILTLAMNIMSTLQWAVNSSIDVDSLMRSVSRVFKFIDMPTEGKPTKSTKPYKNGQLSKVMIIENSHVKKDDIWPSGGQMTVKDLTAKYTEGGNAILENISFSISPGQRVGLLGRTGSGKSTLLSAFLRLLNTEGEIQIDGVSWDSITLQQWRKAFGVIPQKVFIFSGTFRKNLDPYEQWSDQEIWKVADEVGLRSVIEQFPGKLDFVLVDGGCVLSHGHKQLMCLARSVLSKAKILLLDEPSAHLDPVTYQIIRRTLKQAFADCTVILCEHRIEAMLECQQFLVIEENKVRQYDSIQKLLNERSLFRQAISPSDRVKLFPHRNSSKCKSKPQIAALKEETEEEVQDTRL

Take `CC(NC[C@@H]1CCCCN1S(=O)(=O)c1ccc(Br)cc1)c1nc2ccccc2c(=O)n1C` (stereo partly drawn) [compound 215]: the EC50 lay in the range of 25 to 60 µM and the maximum response (Emax) was under 25%.
The like results for `CCCOc1nc(C(C)N2CCN(S(=O)(=O)c3ccc(Br)cc3)CC2)nc2ccccc12` (stereo not drawn) [compound 216] were, in that order, under 10 µM and over 100%.
Regarding `CC(C)Oc1nc(C(C)N2CCN(S(=O)(=O)c3ccc(Br)cc3)CC2)nc2ccccc12` (stereo not drawn) [compound 217], the EC50 is under 10 µM and the maximal effect (Emax) was over 100%.
The like results for `CC(c1nc(OC2CCCC2)c2ccccc2n1)N1CCN(S(=O)(=O)c2ccc(Br)cc2)CC1` (stereo not drawn) [compound 218] were, in that order, under 10 µM and over 100%.
The like results for `CNc1nc(C(C)N2CCN(S(=O)(=O)c3ccc(Br)cc3)CC2)nc2ccccc12` (stereo not drawn) [compound 219] were, in that order, 25 to 60 µM and 25 to 100%.
The like results for `CC(c1nc(N(C)C)c2ccccc2n1)N1CCN(S(=O)(=O)c2ccc(Br)cc2)CC1` (stereo not drawn) [compound 220] were, in that order, 25 to 60 µM and over 100%.
As to `CCNc1nc(C(C)N2CCN(S(=O)(=O)c3ccc(Br)cc3)CC2)nc2ccccc12` (stereo not drawn) [compound 221], the EC50 lay in the range of 25 to 60 µM and the Emax lay in the range of 25 to 100%.
The like results for `CCN(CC)c1nc(C(C)N2CCN(S(=O)(=O)c3ccc(Br)cc3)CC2)nc2ccccc12` (stereo not drawn) [compound 222] were, in that order, under 10 µM and 25 to 100%.
The like results for `CC(c1nc(N2CCOCC2)c2ccccc2n1)N1CCN(S(=O)(=O)c2ccc(Br)cc2)CC1` (stereo not drawn) [compound 223] were, in that order, 10 to 25 µM and over 100%.
For `COc1ccc(S(=O)(=O)N2CCC(NC(C)c3nc4ccccc4c(=O)n3C)C2)cc1` (stereo not drawn) [compound 224], the concentration giving a half-maximal response (EC50) lay within 25 to 60 µM and the maximal response (Emax) is under 25%.
On to `CC(NC1CCN(S(=O)(=O)c2ccc(Cl)cc2)C1)c1nc2ccccc2c(=O)n1C` (stereo not drawn) [compound 225], for which the EC50 fell in the range of 25 to 60 µM and the maximum response (Emax) was under 25%.
The like results for `CC(NC1CCN(S(=O)(=O)c2ccc(Br)cc2)C1)c1nc2ccccc2c(=O)n1C` (stereo not drawn) [compound 226] were, in that order, 25 to 60 µM and 25 to 100%.
As for `COc1nc(C(C)N2CCN(S(=O)(=O)c3ccc(Br)cc3)CC2)nc2ccccc12` (stereo not drawn) [compound 227], the 50% effective concentration (EC50) was in the range of 25 to 60 µM and the maximum response (Emax) is 25 to 100%.
With `CCOc1nc(C(C)N2CCN(S(=O)(=O)c3ccc(Br)cc3)CC2)nc2ccccc12` (stereo not drawn) [compound 228], the EC50 is under 10 µM and the maximal response (Emax) was over 100%.
The like results for `CC(c1nc2ccccc2c(=O)n1C)N1CCN(S(=O)(=O)c2ccccc2Cl)CC1` (stereo not drawn) [compound 229] were, in that order, 25 to 60 µM and 25 to 100%.
Consider `CC(=O)Nc1ccc(S(=O)(=O)N2CCN(C(C)c3nc4ccccc4c(=O)n3C)CC2)cc1` (stereo not drawn) [compound 230], for which the EC50 lay in the range of 25 to 60 µM and the maximal response (Emax) is under 25%.
The like results for `CC(c1nc(OC2CCCC2)c2ccccc2n1)N1CCN(S(=O)(=O)c2ccc(Cl)cc2)CC1` (stereo not drawn) [compound 231] were, in that order, under 10 µM and over 100%.
The like results for `CNc1nc(C(C)N2CCN(S(=O)(=O)c3ccc(Cl)cc3)CC2)nc2ccccc12` (stereo not drawn) [compound 232] were, in that order, 25 to 60 µM and 25 to 100%.
`CC(c1nc(N(C)C)c2ccccc2n1)N1CCN(S(=O)(=O)c2ccc(Cl)cc2)CC1` (stereo not drawn) [compound 233]: the concentration for a half-maximal effect (EC50) was 25 to 60 µM and the Emax lay within 25 to 100%.
In the case of `CCNc1nc(C(C)N2CCN(S(=O)(=O)c3ccc(Cl)cc3)CC2)nc2ccccc12` (stereo not drawn) [compound 234], the EC50 was in the range of 10 to 25 µM and the maximal response (Emax) lay within 25 to 100%.
Take `CCN(CC)c1nc(C(C)N2CCN(S(=O)(=O)c3ccc(Cl)cc3)CC2)nc2ccccc12` (stereo not drawn) [compound 235]: the EC50 is under 10 µM and the Emax was 25 to 100%.
Consider `CC(c1nc(N2CCOCC2)c2ccccc2n1)N1CCN(S(=O)(=O)c2ccc(Cl)cc2)CC1` (stereo not drawn) [compound 236], for which the concentration giving a half-maximal response (EC50) is 25 to 60 µM and the Emax was in the range of 25 to 100%.
With `CC(c1nc(N2CCCCC2)c2ccccc2n1)N1CCN(S(=O)(=O)c2ccc(Cl)cc2)CC1` (stereo not drawn) [compound 237], the EC50 was under 10 µM and the Emax is over 100%.
The like results for `CC(c1nc2ccccc2c(=O)n1C)N(C)CCNS(=O)(=O)c1ccc(Cl)cc1` (stereo not drawn) [compound 238] were, in that order, 25 to 60 µM and under 25%.
The like results for `CC(=O)c1ccc(S(=O)(=O)N2CCN(C(C)c3nc4ccccc4c(=O)n3C)CC2)cc1` (stereo not drawn) [compound 239] were, in that order, 25 to 60 µM and under 25%.
The like results for `CC(c1nc2ccccc2c(=O)n1C)N1CCN(S(=O)(=O)c2ccc(C(=O)O)cc2)CC1` (stereo not drawn) [compound 240] were, in that order, 25 to 60 µM and under 25%.
For `CC(c1nc2ccccc2c(=O)n1C)N1CCN(S(=O)(=O)c2ccc(Cl)c(Cl)c2)CC1` (stereo not drawn) [compound 241], the EC50 was under 10 µM and the maximal response (Emax) was over 100%.
For `CC(c1nc2ccccc2c(=O)n1C)N1CCN(S(=O)(=O)c2ccc(-c3ccccc3)cc2)CC1` (stereo not drawn) [compound 242], the EC50 was 25 to 60 µM and the Emax was under 25%.
The like results for `CC(=O)Nc1nc(C)c(S(=O)(=O)N2CCN(C(C)c3nc4ccccc4c(=O)n3C)CC2)s1` (stereo not drawn) [compound 243] were, in that order, 25 to 60 µM and 25 to 100%.
For `C=Cc1ccc(S(=O)(=O)N2CCN(C(C)c3nc4ccccc4c(=O)n3C)CC2)cc1` (stereo not drawn) [compound 244], the half-maximal effective concentration (EC50) fell in the range of 25 to 60 µM and the maximal effect (Emax) lay within 25 to 100%.
The like results for `COC(=O)c1ccccc1S(=O)(=O)N1CCN(C(C)c2nc3ccccc3c(=O)n2C)CC1` (stereo not drawn) [compound 245] were, in that order, 25 to 60 µM and under 25%.
Consider `CC(c1nc2ccccc2c(=O)n1C)N1CCN(S(=O)(=O)c2cccc(C(=O)O)c2)CC1` (stereo not drawn) [compound 246], for which the concentration for a half-maximal effect (EC50) was 25 to 60 µM and the maximal effect (Emax) is under 25%.
On to `CC(c1nc2ccccc2c(=O)n1C)N1CCN(S(=O)(=O)c2ccc(Br)s2)CC1` (stereo not drawn) [compound 247], for which the EC50 lay in the range of 10 to 25 µM and the maximal response (Emax) is 25 to 100%.
In the case of `CC(c1nc2ccccc2c(=O)n1C)N1CCN(S(=O)(=O)c2cccc(F)c2)CC1` (stereo not drawn) [compound 248], the EC50 is 25 to 60 µM and the maximal response (Emax) is under 25%.
Take `COc1cccc(S(=O)(=O)N2CCN(C(C)c3nc4ccccc4c(=O)n3C)CC2)c1` (stereo not drawn) [compound 249]: the concentration giving a half-maximal response (EC50) was in the range of 25 to 60 µM and the Emax was in the range of 25 to 100%.
The like results for `CC(c1nc2ccccc2c(=O)n1C)N1CCN(S(=O)(=O)c2ccc(C#N)cc2)CC1` (stereo not drawn) [compound 250] were, in that order, 25 to 60 µM and 25 to 100%.
Take `CC(c1nc2ccccc2c(=O)n1C)N1CCN(S(=O)(=O)c2cccc3cnccc23)CC1` (stereo not drawn) [compound 251]: the EC50 is 25 to 60 µM and the maximum response (Emax) is under 25%.
Take `CC(c1nc2ccccc2c(=O)n1C)N1CCN(S(=O)(=O)c2ccc3oc(=O)ccc3c2)CC1` (stereo not drawn) [compound 252]: the half-maximal effective concentration (EC50) fell in the range of 25 to 60 µM and the maximum response (Emax) was in the range of 25 to 100%.
The like results for `CC(c1nc2ccccc2c(=O)n1C)N1CCN(S(=O)(=O)c2ccccc2F)CC1` (stereo not drawn) [compound 253] were, in that order, 25 to 60 µM and 25 to 100%.
As for `CC(c1nc2ccccc2c(=O)n1C)N1CCN(S(=O)(=O)c2c(Cl)ccc3nonc23)CC1` (stereo not drawn) [compound 254], the 50% effective concentration (EC50) is under 10 µM and the Emax was 25 to 100%.
The like results for `CC(c1nc2ccccc2c(=O)n1C)N1CCN(S(=O)(=O)c2ccc(Oc3ccccc3)cc2)CC1` (stereo not drawn) [compound 255] were, in that order, 25 to 60 µM and under 25%.
The like results for `COC(=O)c1sccc1S(=O)(=O)N1CCN(C(C)c2nc3ccccc3c(=O)n2C)CC1` (stereo not drawn) [compound 256] were, in that order, 25 to 60 µM and under 25%.
The like results for `Cc1nn(C)c(Cl)c1S(=O)(=O)N1CCN(C(C)c2nc3ccccc3c(=O)n2C)CC1` (stereo not drawn) [compound 257] were, in that order, 25 to 60 µM and under 25%.
Take `CC(c1nc2ccccc2c(=O)n1C)N1CCN(S(=O)(=O)c2ccc(-c3cc(C(F)(F)F)nn3C)s2)CC1` (stereo not drawn) [compound 258]: the EC50 is 25 to 60 µM and the Emax was under 25%.
The like results for `CC(c1nc2ccccc2c(=O)n1C)N1CCN(S(=O)(=O)c2ccccc2C#N)CC1` (stereo not drawn) [compound 259] were, in that order, 25 to 60 µM and under 25%.
In the case of `CC(c1nc2ccccc2c(=O)n1C)N1CCN(S(=O)(=O)c2ccc(Cl)s2)CC1` (stereo not drawn) [compound 260], the EC50 lay in the range of 10 to 25 µM and the Emax was 25 to 100%.
The like results for `CC(c1nc2ccccc2c(=O)n1C)N1CCN(S(=O)(=O)c2ccc(-c3cc(C(F)(F)F)on3)s2)CC1` (stereo not drawn) [compound 261] were, in that order, 25 to 60 µM and 25 to 100%.
For `CC(c1nc2ccccc2c(=O)n1C)N1CCN(S(=O)(=O)c2ccc(S(C)(=O)=O)cc2)CC1` (stereo not drawn) [compound 262], the EC50 is 25 to 60 µM and the maximal response (Emax) is under 25%.
The like results for `CC(c1nc2ccccc2c(=O)n1C)N1CCN(S(=O)(=O)c2cc(S(=O)(=O)c3ccccc3)cs2)CC1` (stereo not drawn) [compound 263] were, in that order, 25 to 60 µM and under 25%.
The like results for `CC(c1nc2ccccc2c(=O)n1C)N1CCN(S(=O)(=O)c2cccc3nonc23)CC1` (stereo not drawn) [compound 264] were, in that order, 25 to 60 µM and under 25%.
The like results for `CC(c1nc2ccccc2c(=O)n1C)N1CCN(S(=O)(=O)c2ccc(S(=O)(=O)c3ccccc3)s2)CC1` (stereo not drawn) [compound 265] were, in that order, 25 to 60 µM and under 25%.
On to `Cc1noc(C)c1S(=O)(=O)N1CCN(C(C)c2nc3ccccc3c(=O)n2C)CC1` (stereo not drawn) [compound 266], for which the concentration giving a half-maximal response (EC50) is 25 to 60 µM and the Emax was under 25%.
The like results for `CC(c1nc2ccccc2c(=O)n1C)N1CCN(S(=O)(=O)c2ccc(Oc3ccccc3)nc2)CC1` (stereo not drawn) [compound 267] were, in that order, 25 to 60 µM and under 25%.
The like results for `CC(c1nc2ccccc2c(=O)n1C)N1CCN(S(=O)(=O)c2c(Cl)nc3sccn23)CC1` (stereo not drawn) [compound 268] were, in that order, 25 to 60 µM and under 25%.

By EC50 is commonly meant the concentration at which the effect is half-maximal. The term Emax denotes the greatest response seen or fitted, relative to the assay's reference.
